Laboratory results published in ChEMBL document CHEMBL4609995, “Rational design, synthesis and biological profiling of new KDM4C inhibitors” (Bioorg Med Chem, 2020).

Assays:
A549 = experiment: Antiproliferative activity against human A549 cells assessed as reduction in cell growth measured after 72 hrs by Alamar blue assay; format: functional, cell-based; conditions: A549, 72 h
P-gp [1] = experiment: Permeability across apical to basolateral side in MDCK2-MDR1 cells at 10 uM incubated for 60 mins in presence 2 uM P-gp inhibitor elacridar by LC-MS/MS analysis; format: ADME, cell-based, Canis lupus familiaris; conditions: dog, MDCK-MDR1, with elacridar 2 uM; read-out: permeability
[2] = Intrinsic clearance in mouse liver microsomes assessed per mg protein at 1 uM measured up to 60 mins in presence or absence of NADPH by LC-MS/MS analysis; format: ADME, Microsome; conditions: for microsomal CLint at 1 µM: liver microsomes, read-out: CLH
[3] = molecular target: T1, Lysine-specific demethylase 4C (Homo sapiens, UniProt Q9H3R0); experiment: Inhibition of KDM4C (unknown origin) using methylated H3 peptide as substrate by chemiluminescence assay
T1 sequence (Q9H3R0 whole entry): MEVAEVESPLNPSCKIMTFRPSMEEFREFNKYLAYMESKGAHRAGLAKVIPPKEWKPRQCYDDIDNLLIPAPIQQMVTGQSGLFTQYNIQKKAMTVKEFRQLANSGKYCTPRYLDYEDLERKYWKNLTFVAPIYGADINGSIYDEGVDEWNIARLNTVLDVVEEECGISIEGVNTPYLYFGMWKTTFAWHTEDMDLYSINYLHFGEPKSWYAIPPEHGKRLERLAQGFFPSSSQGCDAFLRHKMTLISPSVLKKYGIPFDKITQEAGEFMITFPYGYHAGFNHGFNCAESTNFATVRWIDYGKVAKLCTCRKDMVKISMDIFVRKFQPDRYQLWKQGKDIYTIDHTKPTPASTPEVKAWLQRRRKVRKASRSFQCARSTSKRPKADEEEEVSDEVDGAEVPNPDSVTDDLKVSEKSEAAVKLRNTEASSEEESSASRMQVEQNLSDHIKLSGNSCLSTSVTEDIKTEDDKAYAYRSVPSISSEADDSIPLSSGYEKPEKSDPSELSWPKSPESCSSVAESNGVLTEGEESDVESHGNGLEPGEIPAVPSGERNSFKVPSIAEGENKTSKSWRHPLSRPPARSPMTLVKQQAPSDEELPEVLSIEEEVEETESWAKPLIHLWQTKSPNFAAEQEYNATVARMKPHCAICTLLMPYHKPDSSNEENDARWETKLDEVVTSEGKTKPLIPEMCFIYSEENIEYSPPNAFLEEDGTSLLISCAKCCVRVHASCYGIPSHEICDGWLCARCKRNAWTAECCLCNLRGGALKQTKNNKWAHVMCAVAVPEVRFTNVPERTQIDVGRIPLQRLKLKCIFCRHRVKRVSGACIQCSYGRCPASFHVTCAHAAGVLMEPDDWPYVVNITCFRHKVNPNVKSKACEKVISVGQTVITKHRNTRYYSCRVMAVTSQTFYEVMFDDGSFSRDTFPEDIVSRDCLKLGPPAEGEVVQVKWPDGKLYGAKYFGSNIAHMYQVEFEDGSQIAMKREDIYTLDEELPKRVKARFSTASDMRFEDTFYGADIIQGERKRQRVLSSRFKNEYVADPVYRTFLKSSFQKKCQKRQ

[4] = Substrate activity at P-gp in MDCK2-MDR1 cells at 10 uM incubated for 60 mins in presence or absence of 2 uM P-gp inhibitor elacridar by LC-MS/MS analysis; format: ADME, cell-based, Canis lupus familiaris; conditions: dog, mdck-mdr1, 1 h
P-gp [5] = experiment: Efflux ratio of permeability from basolateral to apical over apical to basolateral side in MDCK2-MDR1 cells MDCK2-MDR1 cells at 10 uM incubated for 60 mins in presence 2 uM P-gp inhibitor elacridar by LC-MS/MS analysis; format: ADME, cell-based, Canis lupus familiaris; conditions: dog, MDCK-MDR1, with elacridar 2 uM
HepG2 = experiment: Antiproliferative activity against human HepG2 cells assessed as reduction in cell growth measured after 24 hrs by MTS assay; format: functional, cell-based; conditions: HepG2, 24 h
[6] = molecular target: T2, Lysine-specific demethylase 4C (Homo sapiens) (UniProt Q9H3R0); experiment: Inhibition of KDM4C (unknown origin) at 10 uM using methylated H3 peptide as substrate by chemiluminescence assay relative to control
T2 sequence (whole entry): T1 sequence (Q9H3R0 whole entry)

[7] = Electrochemical behavior of the compound assessed as reduction in redox potential; format: physicochemical
Homo sapiens = species: Homo sapiens; experiment: Selectivity ratio, ratio of IC50 for KDM4A (unknown origin) to IC50 for KDM4C (unknown origin)
[8] = molecular target: T3, Lysine-specific demethylase 4A (Homo sapiens, UniProt O75164); experiment: Inhibition of KDM4A (unknown origin)
T3 sequence (O75164 whole entry): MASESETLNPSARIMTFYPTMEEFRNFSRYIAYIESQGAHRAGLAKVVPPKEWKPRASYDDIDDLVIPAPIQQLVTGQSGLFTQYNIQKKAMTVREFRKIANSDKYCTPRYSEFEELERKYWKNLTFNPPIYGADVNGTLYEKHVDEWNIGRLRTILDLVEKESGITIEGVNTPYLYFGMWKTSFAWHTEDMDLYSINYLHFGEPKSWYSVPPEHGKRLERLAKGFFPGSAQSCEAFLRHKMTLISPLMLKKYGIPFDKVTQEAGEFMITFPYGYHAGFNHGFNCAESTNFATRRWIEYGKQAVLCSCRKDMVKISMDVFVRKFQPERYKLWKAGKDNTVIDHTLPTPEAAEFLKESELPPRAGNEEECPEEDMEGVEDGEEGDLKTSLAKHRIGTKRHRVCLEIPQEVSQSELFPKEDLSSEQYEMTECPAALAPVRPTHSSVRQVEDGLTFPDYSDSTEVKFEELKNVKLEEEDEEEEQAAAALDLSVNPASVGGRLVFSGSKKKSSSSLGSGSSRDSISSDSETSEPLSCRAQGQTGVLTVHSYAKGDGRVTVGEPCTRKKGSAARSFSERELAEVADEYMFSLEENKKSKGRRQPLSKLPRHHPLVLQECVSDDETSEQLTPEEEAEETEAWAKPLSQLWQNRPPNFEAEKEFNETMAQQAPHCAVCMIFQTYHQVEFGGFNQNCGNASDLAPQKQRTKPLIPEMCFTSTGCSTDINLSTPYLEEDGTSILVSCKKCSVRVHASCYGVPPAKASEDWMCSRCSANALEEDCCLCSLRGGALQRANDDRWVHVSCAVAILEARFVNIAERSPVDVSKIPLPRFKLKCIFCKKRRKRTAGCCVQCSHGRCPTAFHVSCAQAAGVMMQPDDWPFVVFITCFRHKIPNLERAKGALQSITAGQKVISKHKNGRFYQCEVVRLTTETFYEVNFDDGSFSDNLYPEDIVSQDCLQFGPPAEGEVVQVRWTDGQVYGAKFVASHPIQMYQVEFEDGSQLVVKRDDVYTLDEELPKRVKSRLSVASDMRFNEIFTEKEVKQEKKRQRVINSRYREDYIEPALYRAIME

[9] = molecular target: T1, Lysine-specific demethylase 4C; experiment: Inhibition of KDM4C (unknown origin)

| SMILES | IC50 (A549) [nM] | Papp A→B at 1 h, 10 µM (P-gp [1]) [×10⁻⁶ cm/s] | microsomal CLint at 1 µM [2] [µL/min/mg] | IC50 ([3]; read-out: IC50) [nM] | Activity [4] | efflux ratio at 1 h, 10 µM (P-gp [5]) | IC50 (HepG2) [nM] | inhibition [6] [%] | Activity [7] | IC50 [3] | Ratio IC50 (Homo sapiens) | IC50 [8] [nM] | IC50 [9] [nM] | CLint ([2]; microsomes, 1 h, 1 µM) [µL/min/mg] |
| --- | --- | --- | --- | --- | --- | --- | --- | --- | --- | --- | --- | --- | --- | --- |
| Cn1nc(-c2ccc(S(N)(=O)=O)cc2)nc2c(=O)n(C)c(=O)nc1-2 | > 30000 | 0.8 | < 12.5 | 42 | Not Active | < 2 | 5600 | – | – | – | – | – | – | – |
| Cn1c(=O)[nH]c2ccc(-c3ccccc3)cc2c1=O | > 30000 | 27.3 | 229 | > 10000 | Not Active | < 2 | > 25000 | – | – | – | – | – | – | – |
| Cn1nc(-c2ccc(F)cc2)nc2c(=O)n(C)c(=O)nc1-2 | 1600 | 30.6 | < 12.5 | 81 | Not Active | < 2 | 820 | – | – | – | – | – | – | – |
| Cn1c(=O)nc2[nH]nc(-c3ccccc3)nc-2c1=O | > 30000 | 35.5 | < 12.5 | 7630 | Not Active | < 2 | > 25000 | – | – | – | – | – | – | – |
| CN(/N=C/c1ccc(F)cc1)c1cc(=O)n(C)c(=O)[nH]1 | – | – | – | – | – | – | – | > 70 | – | – | – | – | – | – |
| Cn1nc(-c2ccccc2)nc2c(=O)n(C)c(=O)nc1-2 | 1100 | 34.7 | < 12.5 | 130 | Not Active | < 2 | 870 | – | – | – | – | – | – | – |
| COc1ccc(/C=N/N(C)c2cc(=O)n(C)c(=O)[nH]2)cc1 | – | – | – | – | – | – | – | 40 to 70 | – | – | – | – | – | – |
| CN(/N=C/c1ccccc1)c1cc(=O)n(C)c(=O)[nH]1 | – | – | – | – | – | – | – | > 70 | Active | – | – | – | – | – |
| COc1ccc(-c2nc3c(=O)n(C)c(=O)nc-3n(C)n2)cc1 | 1100 | 34.5 | < 12.5 | 8 | Not Active | < 2 | 800 | – | – | – | – | – | – | – |
| Cn1nc(-c2ccccc2)nc2n(C)c(=O)nc1-2 | > 30000 | 40.6 | 13.1 | 12700 | Not Active | < 2 | > 25000 | – | – | – | – | – | – | – |
| Cn1nc(-c2ccc(O)cc2)nc2c(=O)n(C)c(=O)nc1-2 | 5800 | 13.2 | < 12.5 | 242 | Not Active | < 2 | 1100 | – | – | – | – | – | – | – |
| Cn1nc(Cc2ccccc2)nc2c(=O)n(C)c(=O)nc1-2 | > 30000 | 25.3 | < 12.5 | 29 | Not Active | < 2 | 5100 | – | – | – | – | – | – | – |
| CN(C)c1ccccc1/C=N/N(C)c1cc(=O)n(C)c(=O)[nH]1 | – | – | – | – | – | – | – | 40 to 70 | – | – | – | – | – | – |
| CN(/N=C/c1ccc(O)cc1)c1cc(=O)n(C)c(=O)[nH]1 | – | – | – | – | – | – | – | 40 to 70 | – | – | – | – | – | – |
| Cn1nc(-c2ccc(C#N)cc2)nc2c(=O)n(C)c(=O)nc1-2 | 1900 | 26.8 | < 12.5 | 11 | Not Active | < 2 | 800 | – | – | – | – | – | – | – |
| COC(=O)C1(c2ccc(-c3nc4c(=O)n(C)c(=O)nc-4n(C)n3)cc2)CC1 | 1300 | 24.9 | < 12.5 | – | Not Active | < 2 | 1200 | – | – | Not Active | – | – | – | – |
| Cn1ncnc2c(=O)n(C)c(=O)nc1-2 | 22 | 16 | < 12.5 | 541 | Not Active | < 2 | 4500 | – | – | – | 5 | 2500 | 500 | – |
| Cn1nc(-c2ccncc2)nc2c(=O)n(C)c(=O)nc1-2 | 4300 | 13.4 | 11.6 | 19 | Not Active | < 2 | 1800 | – | – | – | – | – | – | – |
| Cn1nc(-c2ccn(C)c(=O)c2)nc2c(=O)n(C)c(=O)nc1-2 | 8800 | 1.1 | – | – | Active | < 2 | 4500 | – | – | Not Active | – | – | – | 71.8 |
| CN(C)c1ccccc1-c1nc2c(=O)n(C)c(=O)nc-2n(C)n1 | 5700 | 18 | < 12.5 | 16 | Not Active | < 2 | 2100 | – | – | – | – | – | – | – |
